Data published in patent US20220361555A1, “INHIBITION OF UNDESIRED SENSORY EFFECTS BY THE COMPOUND CAMPHOR” (priority 2010, published 2022).
Several values for one entry are separate records, joined by “and”; a condition that tells them apart may be missing. Identical values can stand only once. Entries after “also recorded” stand apart in the source; their conditions may differ.

Assays:
[1] = system: tongues of human volunteers; test: Pre-treatment with camphor (ethanol/water solution on a strip) on sensory irritation from nicotine; format: in vivo; details: 25, 50 or 100 ppm camphor on a strip for 30 seconds, then 0.1-0.3% nicotine; immediately and 30 seconds after initial exposure
Source text: FIGS. 1 and 2 show the results of a study on the effect of pre-treatment with camphor on sensory irritation from nicotine. Camphor was applied to tongues of human volunteers prior to application of a nicotine solution. Randomized sides of tongues were selected for application of 20 microliters of 0 ppm, 25 ppm, 50 ppm, or 100 ppm of camphor from an ethanol/water solution on a strip (thus, about […], respectively) for 30 seconds. Then, the subjects sipped, rinsed, then spit 0.1%, 0.2%, or 0.3% of a nicotine solution for a 5 second application. Participants were then asked which side of the tongue has the strongest burning sensation. Responses were collected both immediately (within 5 seconds) (FIG. 1) and after 30 seconds (FIG. 2). Controls received no camphor, and a baseline was established at zero camphor.

[2] = system: participants (mouth); test: Determination of irritation threshold of camphor solution in the mouth; format: in vivo, human; parameters: key to irritation perceived: Y: the participant felt irritation at the indicated concentration; N: no irritation was felt; details: for irritation perceived: 2 ml solution swished 10 seconds
Method: A further study was conducted to determine the threshold at which camphor itself would cause sensory irritation.
Each test used two milliliters (2 ml) of a camphor solution. The camphor was dissolved in ethanol and further diluted in water. Participants received sequentially increasing concentration of camphor. Nine participants received samples including food grade racemic camphor, with concentrations of 200, 300, 400, […] 1000, 2000, 4000, 6000 ppm (corresponding to about […] per sample, respectively).
Participants wore nose clips during evaluation. Each participant sipped the sample, swished it in the mouth for 10 seconds, then spat it out. Each participant then indicated whether irritation was perceived. Between evaluations of each sample, participants rinsed with water and waited for one minute.
The left-most column indicates the participant number of each individual participant.

[3] = system: mouth of subjects using oral tobacco; test: Snus pouches with camphor, perceived burning in the mouth (2AFC); format: in vivo, human; details: snus pouch
Method: A further study was conducted to determine if camphor affected perceived burning in the mouth of subjects using oral tobacco. Participants were given two snus pouch samples to use simultaneously, one in each side of the mouth. One sample was a control pouch with no camphor added and the other contained various concentrations of camphor (2.3, 6, 12, 23, 46, and 69 nanograms, corresponding to […], based on tobacco weight, respectively).
The hand-made test samples were constructed using unflavored tobacco (12% oven volatiles) to prevent any possible interference of the flavor system with the objective of the study. In preparing the pouches, the camphor was dissolved in 95% ethanol, with the control pouches receiving the ethanol only. […]
After two (2) minutes, five (5) minutes, and ten (10) minutes of using the samples, participants were asked to indicate which side of the mouth was burning more. Responses were recorded on paper by the experimenter. […] Following each evaluation, participants were asked to give details regarding where the burning was felt and to provide any open-ended comments regarding their experience, which were recorded on paper by the experimenter. Participants repeated the sensory evaluation procedures an additional six (6) times, with a maximum of two (2) pairs being evaluated each day.

[4] = system: tongues of 18 participants; test: Camphor in NEOBEE oil carrier pretreatment, burning sensation from nicotine strips; format: in vivo, human; parameters: Difference from control (burning from nicotine): scale not given here
Method: Camphor pretreatment was performed using two taste strips applied bilaterally (blinded, randomized) on the tongues of 18 participants. Test strips had 250 microliters of NEOBEE oil carrier with camphor concentrations of C ranging from 300 ppm to 1800 ppm. Control strips contained 250 microliters of carrier only (NEOBEE Oil). The pretreatment time was about 30 seconds. Participants then removed the taste strips and nicotine strips were placed in treated area. The nicotine was provided in an amount of 730 micrograms in 50 microliters for about 30 seconds. Each nicotine strip was then removed, followed by sensory evaluation of burning immediately, at 30 seconds, and 2 minutes. For sensory evaluation, 2 AFC and sensory irritation intensity ratings were generated.
A repeated measures analysis of variance (ANOVA) model was applied to analyze the data. The model includes terms for study participant, study time and concentration of camphor (see the Table 1). The SAS procedure “PROC MIXED” was used. The p value was for the comparison between each concentration with the control. The chi squared test was used for calculating significance for forced choice values.

[5] = Sensory effect of camphor in mineral oil in smokeless tobacco products; format: in vivo
[6] = system: nerve fibers; details: isolated mouse trachea model, Kichko et al.; cited from earlier work
[7] = system: acetylcholine receptors; details: by inhibiting acetylcholine receptors, Park et al.; cited from earlier work

## CC12CCC(CC1=O)C2(C)C (racemic) [camphor]
[1]
  perceived burning from nicotine after pre-treatment with camphor: significantly reduced perceived burning from nicotine
[2]; 200 ppm camphor, one line per participant
  irritation perceived: Y (3×) and N (6×)
[2]; 300 ppm camphor, one line per participant
  irritation perceived: Y (3×) and N (6×)
[2]; 400 ppm camphor, one line per participant
  irritation perceived: Y (4×) and N (4×)
[2]; 500 ppm camphor, one line per participant
  irritation perceived: N (3×) and Y (3×)
[2]; 1000 ppm camphor, one line per participant
  irritation perceived: N and Y (2×)
[2]; 2000 ppm camphor, one line per participant
  irritation perceived: Y
[2]; 4000 ppm camphor, one line per participant
  irritation perceived: Y
[2]; 6000 ppm camphor, one line per participant
  irritation perceived: Y
[2]; n=9
  mean threshold for producing irritation: 655 ppm
[2]; one line per participant, first line given
  Notes (sensation described by participant): Very slight tingling at 200,; also recorded: Felt slight tingling at 2000,; also recorded: Felt some tingling at 1000,; also recorded: Tingling at 300, tingling no; also recorded: Slight tingling and burning at; also recorded: No Burning, slight tingling on; also recorded: Some burning at 200, stronger; also recorded: Felt slight tingling at 500,; also recorded: Some burning and stinging at
[3]; asked at 2, 5 and 10 minutes
  time at which the effect on oral burning was strongest: 10 min
[3]; printed as corresponding to 50 ppm
  quantity of camphor most effective in reducing oral burning: 12 nanogram
[4]; 600 ppm, 900 ppm and 1200 ppm camphor, immediately, at 30 seconds and at 120 seconds after nicotine
  sensory irritation from nicotine versus control: significant reduction in sensory irritation from nicotine
[4]; study time 0 sec, camphor 300 ppm in NEOBEE oil
  Difference from control (burning from nicotine): 4.31
[4]; study time 0 sec, camphor 600 ppm in NEOBEE oil
  Difference from control (burning from nicotine): −24.03
[4]; study time 0 sec, camphor 900 ppm in NEOBEE oil
  Difference from control (burning from nicotine): −22.64
[4]; study time 0 sec, camphor 1200 ppm in NEOBEE oil
  Difference from control (burning from nicotine): −19.99
[4]; study time 0 sec, camphor 1500 ppm in NEOBEE oil
  Difference from control (burning from nicotine): −8.62
[4]; study time 0 sec, camphor 1800 ppm in NEOBEE oil
  Difference from control (burning from nicotine): 7.29
[4]; study time 30 sec, camphor 300 ppm in NEOBEE oil
  Difference from control (burning from nicotine): −1.67
[4]; study time 30 sec, camphor 600 ppm in NEOBEE oil
  Difference from control (burning from nicotine): −18.00
[4]; study time 30 sec, camphor 900 ppm in NEOBEE oil
  Difference from control (burning from nicotine): −19.72
[4]; study time 30 sec, camphor 1200 ppm in NEOBEE oil
  Difference from control (burning from nicotine): −14.30
[4]; study time 30 sec, camphor 1500 ppm in NEOBEE oil
  Difference from control (burning from nicotine): −11.11
[4]; study time 30 sec, camphor 1800 ppm in NEOBEE oil
  Difference from control (burning from nicotine): 5.25
[4]; study time 120 sec, camphor 300 ppm in NEOBEE oil
  Difference from control (burning from nicotine): −2.12
[4]; study time 120 sec, camphor 600 ppm in NEOBEE oil
  Difference from control (burning from nicotine): −13.80
[4]; study time 120 sec, camphor 900 ppm in NEOBEE oil
  Difference from control (burning from nicotine): −17.69
[4]; study time 120 sec, camphor 1200 ppm in NEOBEE oil
  Difference from control (burning from nicotine): −11.93
[4]; study time 120 sec, camphor 1500 ppm in NEOBEE oil
  Difference from control (burning from nicotine): −2.38
[4]; study time 120 sec, camphor 1800 ppm in NEOBEE oil
  Difference from control (burning from nicotine): 2.16
[5]
  concentration of camphor that does not exhibit a sensory effect of its own (smell, taste, extensive cooling): less than 1300 ppm
[6]
  activation of nerve fibers induced by nicotine: effectively inhibit activation of nerve fibers
[7]
  norepinephrine release from adrenal gland cells: inhibit norepinephrine release
